Publication PMC8619202, “Optimization of Microwave-Assisted Green Method for Enhanced Solubilization of Water-Soluble Curcuminoids Prepared Using Steviol Glycosides” (Foods, 2021)
≈ marks a conversion by molar mass, not a printed value.

How the values were obtained:
[1] = cited from earlier work; for solubility in dimethyl sulfoxide / solubility in ethanol / solubility in water: from C. longa
[2] = Storage stability of curcuminoids solubilized in steviol glycoside solutions, HPLC; conditions: for stability of solubilized curcuminoids at room temperature: 10% (w/v) SG, protected from light, 24 h
Method: (§1) In order to evaluate the stability in 10% (w/v) SGs, the water-soluble curcuminoids were analyzed by HPLC for 1 month. […] In order to achieve better solubility, transglycosylation is regarded as an important procedural phenomenon that leads to structural modifications and derivatizations that result in enhanced biological activities and improved solubility. Moreover, heating in the case of microwave irradiation is usually dependent on the nature of the sample, the solvent employed, and the irradiation power level mediated through the ionic conduction and dipole rotation (also known as dipole polarization) of the microwaves. In the absence of ions, water dipoles are found in the free form and may experience dipole rotation due to microwave radiation-induced oscillation.

[3] = Solubility of curcuminoids in the presence of steviol glycosides, with or without microwave or other physical treatment, HPLC; conditions: steviol glycoside 10% w/v; for Bisdemethoxycurcumin (mg/mL) NT / Curcumin (mg/mL) NT / Demethoxycurcumin (mg/mL) NT / Total Curcuminoids (mg/mL) NT: not treated by microwave
Method: The effect of water concentration to extract curcuminoids was investigated. […] The mixture in an ethanol solution was vortexed for 15 min and centrifuged at 12,000× g for 10 min (SupraR30, W × D × H: 710 × 1000 × 1260 mm, Hanil Scientific Inc., Gimp, Korea). The supernatant was transferred to a new tube and ethanol was evaporated. The resulting powders were dissolved in water, centrifuged at 12,000× g for 10 min, and filtered through a 0.20 μm membrane (Agilent, Santa Clara, CA, USA).
Weighing of the appropriate amounts of each steviol glycoside and curcuminoids was carried out, and they were put into 50 mL glass bottles. Furthermore, the suspension of curcuminoid–SG was subjected to heating by exposure to microwave irradiation in a microwave-assisted extractor (CEM, Matthews, NC, USA) at 100 W and 25 °C. Prior to conducting chromatographic analyses as per the reported method of Nguyen et al., the filtration of all samples was performed using a 0.45 μm nylon syringe filter (Millipore, Billerica, MA, USA). The quantitative concentration determination of curcuminoids and SGs was performed by employing series of standard solutions of curcuminoid in methanol with concentrations ranging from 0.15 to 10 μg/mL according to the reported method. Chromatographic separation for quantitative analysis was carried out using an Agilent 1200 liquid chromatographic system (Agilent Technologies, Palo Alto, CA, USA) equipped with an autosampler, quaternary HPLC pump, degasser, ZORBAX SB-C18 column (5 μm, 4.6 × 150 mm), and UV detector (VWD) set at 210 and 260 nm. The mobile phase for HPLC consisted of solvent A, which was 0.1% trifluoroacetic acid in water, and solvent B, which was 0.1% trifluoroacetic acid in acetonitrile. The solvent gradient was as follows (relative to solvent A): 0 min, 80% A; 10 min, 75% B; 20 min, 65% B; 30 min, 50% B; 40 min, 40%; 50 min, 30%; 60 min, 0% B; 0 min, 20%; 10 min, 25% B; 20 min, 35% B; 30 min, 50%; 40 min, 60%; 50 min, 70%; and 60 min, 100%. The column temperature was maintained at 30 °C with an injection volume of 10 μL at a flow rate of 1.0 mL/min.
as §1

## O=C(/C=C/c1ccc(O)cc1)CC(=O)/C=C/c1ccc(O)cc1 [BDMC, bisdemethoxycurcumin]
[1]
  solubility in dimethyl sulfoxide: 25 mg/mL (≈ 81.1 mM)
  solubility in ethanol: 10 mg/mL (≈ 32.4 mM)
  solubility in water: 0.011 mg/mL (≈ 0.0357 mM)

## COc1cc(/C=C/C(=O)CC(=O)/C=C/c2ccc(O)c(OC)c2)ccc1O [Curcumin, curcumin]
[1]
  solubility in dimethyl sulfoxide: 25 mg/mL (≈ 67.9 mM)
  solubility in ethanol: 10 mg/mL (≈ 27.1 mM)
  solubility in water: 0.011 mg/mL (≈ 0.0299 mM)

## COc1cc(/C=C/C(O)=C/C(=O)/C=C/c2ccc(O)cc2)ccc1O [DMC, demethoxycurcumin]
[1]
  solubility in dimethyl sulfoxide: 25 mg/mL (≈ 73.9 mM)
  solubility in ethanol: 10 mg/mL (≈ 29.6 mM)
  solubility in water: 0.011 mg/mL (≈ 0.0325 mM)

## C=C1C[C@@]23CC[C@H]4[C@@](C)(CCC[C@@]4(C)C(=O)O[C@@H]4O[C@H](CO)[C@@H](O)[C@H](O)[C@H]4O)[C@@H]2CC[C@]1(O[C@@H]1O[C@H](CO)[C@@H](O)[C@H](O)[C@H]1O)C3 [R, rubusoside]
[1]; 10% rubusoside aqueous solution (w/v)
  solubility of curcumin in rubusoside aqueous solution: 0.6 to 2.3 mg/mL
[2]
  stability of solubilized curcuminoids at room temperature: highly stable
  stability of aqueous curcuminoid solutions on long-term storage: did not exhibit good stability

## C=C1C[C@@]23CC[C@H]4[C@@](C)(CCC[C@@]4(C)C(=O)O)[C@@H]2CC[C@]1(O[C@@H]1O[C@H](CO)[C@@H](O)[C@H](O)[C@H]1O)C3 [SMG, steviol mono-glucoside]
[3]
  Total Curcuminoids Ratio Microwave /NT (fold): 7.3 fold
  Bisdemethoxycurcumin (mg/mL) NT: 0.04 ± 0.01 mg/mL
  Curcumin (mg/mL) NT: 0.46 ± 0.1 mg/mL
  Demethoxycurcumin (mg/mL) NT: 0.04 ± 0.01 mg/mL
  Total Curcuminoids (mg/mL) NT: 0.54 ± 0.1 mg/mL
  Bisdemethoxycurcumin (mg/mL) Microwave: 0.52 ± 0.1 mg/mL
  Curcumin (mg/mL) Microwave: 2.52 ± 0.15 mg/mL
  Demethoxycurcumin (mg/mL) Microwave: 0.88 ± 0.1 mg/mL
  Total Curcuminoids (mg/mL) Microwave: 3.92 ± 0.5 mg/mL

## C=C1C[C@@]23CC[C@H]4[C@@](C)(CCC[C@@]4(C)C(=O)O[C@@H]4O[C@H](CO)[C@@H](O)[C@H](O)[C@H]4O)[C@@H]2CC[C@]1(O[C@@H]1O[C@H](CO)[C@@H](O)[C@H](O)[C@H]1O[C@@H]1O[C@H](CO)[C@@H](O)[C@H](O)[C@H]1O)C3 [ST, stevioside]
[2]
  stability of solubilized curcuminoids at room temperature: highly stable

## α-glucosyl stevioside [STG]
[3]
  Total Curcuminoids Ratio Microwave /NT (fold): 7.0 fold
  Bisdemethoxycurcumin (mg/mL) NT: 0.04 ± 0.01 mg/mL
  Curcumin (mg/mL) NT: 0.51 ± 0.2 mg/mL
  Demethoxycurcumin (mg/mL) NT: 0.05 ± 0.01 mg/mL
  Total Curcuminoids (mg/mL) NT: 0.61 ± 0.1 mg/mL
  Bisdemethoxycurcumin (mg/mL) Microwave: 0.69 ± 0.2 mg/mL
  Curcumin (mg/mL) Microwave: 2.72 ± 0.3 mg/mL
  Demethoxycurcumin (mg/mL) Microwave: 0.83 ± 0.1 mg/mL
  Total Curcuminoids (mg/mL) Microwave: 4.24 ± 0.6 mg/mL
[2]
  stability of aqueous curcuminoid solutions on long-term storage: very good stability
